Measured values: PubChem BioAssay AID1963830 (Molecular Pharmacology Branch, DTP, NCI, 2024)

Tested on: 922993-354-T-J3-PDC complex spheroid viability
Assay: Anticancer human tumor 922993-354-T-J3-PDC patient-derived endometrial carcinoma cell line growth inhibition [POLQ]
Conditions: for IC50: curve of first compound; for viability, T/C: stronger effect = lower value
Method in brief: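 Growth inhibition in 3D: complex spheroids (tumor PDC, HUVEC, MSC) treated with POLQ inhibitor combinations; where Cmax unknown, highest tested concentration 10 microM, except SN-38 at 1 microM.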

[1] = second compound 0.0316 µM, first compound 0.0316 µM
[2] = second compound 0.0316 µM, first compound 0.1 µM
[3] = second compound 0.0316 µM, first compound 0.316 µM
[4] = second compound 0.0316 µM, first compound 1 µM
[5] = second compound 0.0316 µM, first compound 3.16 µM
[6] = second compound 0.0316 µM, first compound 10 µM
[7] = second compound 0.1 µM, first compound 0.0316 µM
[8] = second compound 0.1 µM, first compound 0.1 µM
[9] = second compound 0.1 µM, first compound 0.316 µM
[10] = second compound 0.1 µM, first compound 1 µM
[11] = second compound 0.1 µM, first compound 3.16 µM
[12] = second compound 0.1 µM, first compound 10 µM
[13] = second compound 0.316 µM, first compound 0.0316 µM
[14] = second compound 0.316 µM, first compound 0.1 µM
[15] = second compound 0.316 µM, first compound 0.316 µM
[16] = second compound 0.316 µM, first compound 1 µM
[17] = second compound 0.316 µM, first compound 3.16 µM
[18] = second compound 0.316 µM, first compound 10 µM
[19] = second compound 1 µM, first compound 0.0316 µM
[20] = second compound 1 µM, first compound 0.1 µM
[21] = second compound 1 µM, first compound 0.316 µM
[22] = second compound 1 µM, first compound 1 µM
[23] = second compound 1 µM, first compound 3.16 µM
[24] = second compound 1 µM, first compound 10 µM
[25] = second compound 3.16 µM, first compound 0.0316 µM
[26] = second compound 3.16 µM, first compound 0.1 µM
[27] = second compound 3.16 µM, first compound 0.316 µM
[28] = second compound 3.16 µM, first compound 1 µM
[29] = second compound 3.16 µM, first compound 3.16 µM
[30] = second compound 3.16 µM, first compound 10 µM
[31] = second compound 10 µM, first compound 0.0316 µM
[32] = second compound 10 µM, first compound 0.1 µM
[33] = second compound 10 µM, first compound 0.316 µM
[34] = second compound 10 µM, first compound 1 µM
[35] = second compound 10 µM, first compound 3.16 µM
[36] = second compound 10 µM, first compound 10 µM
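Also: spheroids exposed to the agents for one week.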
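For viability, T/C in this document: 100% = DMSO vehicle control wells.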

C#Cc1c(F)ccc2cc(O)cc(-c3ncc4c(N5CC6CCC(C5)N6)nc(OCC56CCCN5CC(F)C6)nc4c3F)c12 (stereo not given) + COC1C(OC(N)=O)C(O)C(Oc2ccc3c(O)c(NC(=O)c4ccc(O)c(CC=C(C)C)c4)c(=O)oc3c2C)OC1(C)C
IC50 (second compound 0.0316 µM): > 10 µM | IC50 (second compound 0.1 µM): > 10 µM | IC50 (second compound 0.316 µM): > 10 µM | IC50 (second compound 1 µM): > 10 µM | IC50 (second compound 3.16 µM): > 10 µM | IC50 (second compound 10 µM): > 10 µM | viability, T/C [1]: 100% | viability, T/C [2]: 97.4% | viability, T/C [3]: 90.5% | viability, T/C [4]: 101% | viability, T/C [5]: 98% | viability, T/C [6]: 79.5% | viability, T/C [7]: 105% | viability, T/C [8]: 101% | viability, T/C [9]: 98.8% | viability, T/C [10]: 90.3% | viability, T/C [11]: 94.9% | viability, T/C [12]: 90.4% | viability, T/C [13]: 105% | viability, T/C [14]: 98.4% | viability, T/C [15]: 104% | viability, T/C [16]: 87.2% | viability, T/C [17]: 92.8% | viability, T/C [18]: 90% | viability, T/C [19]: 96.9% | viability, T/C [20]: 98.8% | viability, T/C [21]: 94.9% | viability, T/C [22]: 94.2% | viability, T/C [23]: 93% | viability, T/C [24]: 86.9% | viability, T/C [25]: 96.9% | viability, T/C [26]: 90.3% | viability, T/C [27]: 98.3% | viability, T/C [28]: 81.7% | viability, T/C [29]: 99.5% | viability, T/C [30]: 74.9% | viability, T/C [31]: 81.8% | viability, T/C [32]: 86.2% | viability, T/C [33]: 90.4% | viability, T/C [34]: 89.5% | viability, T/C [35]: 96.2% | viability, T/C [36]: 72.1%

C=CC(=O)N1CCN(c2nc(=O)n(-c3c(C)ccnc3C(C)C)c3nc(-c4c(O)cccc4F)c(F)cc23)C(C)C1 (stereo not given) + COC1C(OC(N)=O)C(O)C(Oc2ccc3c(O)c(NC(=O)c4ccc(O)c(CC=C(C)C)c4)c(=O)oc3c2C)OC1(C)C
IC50 (second compound 0.0316 µM): > 10 µM | IC50 (second compound 0.1 µM): > 10 µM | IC50 (second compound 0.316 µM): > 10 µM | IC50 (second compound 1 µM): > 10 µM | IC50 (second compound 3.16 µM): > 10 µM | IC50 (second compound 10 µM): > 10 µM | viability, T/C [1]: 102% | viability, T/C [2]: 94.8% | viability, T/C [3]: 98.9% | viability, T/C [4]: 101% | viability, T/C [5]: 92.8% | viability, T/C [6]: 84.1% | viability, T/C [7]: 98.9% | viability, T/C [8]: 107% | viability, T/C [9]: 93.3% | viability, T/C [10]: 91.4% | viability, T/C [11]: 88.3% | viability, T/C [12]: 97.6% | viability, T/C [13]: 102% | viability, T/C [14]: 101% | viability, T/C [15]: 103% | viability, T/C [16]: 96.5% | viability, T/C [17]: 96.2% | viability, T/C [18]: 99.6% | viability, T/C [19]: 101% | viability, T/C [20]: 97.5% | viability, T/C [21]: 97.4% | viability, T/C [22]: 98.6% | viability, T/C [23]: 93% | viability, T/C [24]: 104% | viability, T/C [25]: 102% | viability, T/C [26]: 94.2% | viability, T/C [27]: 95.9% | viability, T/C [28]: 92% | viability, T/C [29]: 97.4% | viability, T/C [30]: 101% | viability, T/C [31]: 85.8% | viability, T/C [32]: 88.4% | viability, T/C [33]: 89.8% | viability, T/C [34]: 85.9% | viability, T/C [35]: 88.3% | viability, T/C [36]: 85%

CCc1cc2c(N3CCc4c(cc(Cn5ccnc5)cc4-c4cn(C)nc4C(F)(F)F)C3=O)cc(C)nc2c(OC)n1 + COC1C(OC(N)=O)C(O)C(Oc2ccc3c(O)c(NC(=O)c4ccc(O)c(CC=C(C)C)c4)c(=O)oc3c2C)OC1(C)C
IC50 (second compound 0.0316 µM): > 10 µM | IC50 (second compound 0.1 µM): > 10 µM | IC50 (second compound 0.316 µM): > 10 µM | IC50 (second compound 1 µM): > 10 µM | IC50 (second compound 3.16 µM): > 10 µM | IC50 (second compound 10 µM): > 10 µM | viability, T/C [1]: 113% | viability, T/C [2]: 98.7% | viability, T/C [3]: 99.7% | viability, T/C [4]: 107% | viability, T/C [5]: 99.8% | viability, T/C [6]: 80.5% | viability, T/C [7]: 111% | viability, T/C [8]: 94.3% | viability, T/C [9]: 108% | viability, T/C [10]: 98.1% | viability, T/C [11]: 104% | viability, T/C [12]: 88.9% | viability, T/C [13]: 103% | viability, T/C [14]: 103% | viability, T/C [15]: 93.7% | viability, T/C [16]: 108% | viability, T/C [17]: 94.1% | viability, T/C [18]: 88.1% | viability, T/C [19]: 108% | viability, T/C [20]: 111% | viability, T/C [21]: 103% | viability, T/C [22]: 99.2% | viability, T/C [23]: 90.2% | viability, T/C [24]: 82.4% | viability, T/C [25]: 95.9% | viability, T/C [26]: 106% | viability, T/C [27]: 108% | viability, T/C [28]: 95% | viability, T/C [29]: 86.2% | viability, T/C [30]: 80.6% | viability, T/C [31]: 92.8% | viability, T/C [32]: 89.1% | viability, T/C [33]: 87.5% | viability, T/C [34]: 92.9% | viability, T/C [35]: 92.4% | viability, T/C [36]: 74.3%

CCc1cc2c(N3CCc4c(cc(Cn5ccnc5)cc4-c4cn(C)nc4C(F)(F)F)C3=O)ccnc2c(OC)n1 + COC1C(OC(N)=O)C(O)C(Oc2ccc3c(O)c(NC(=O)c4ccc(O)c(CC=C(C)C)c4)c(=O)oc3c2C)OC1(C)C
IC50 (second compound 0.0316 µM): > 10 µM | IC50 (second compound 0.1 µM): > 10 µM | IC50 (second compound 0.316 µM): > 10 µM | IC50 (second compound 1 µM): > 10 µM | IC50 (second compound 3.16 µM): > 10 µM | IC50 (second compound 10 µM): > 10 µM | viability, T/C [1]: 104% | viability, T/C [2]: 110% | viability, T/C [3]: 101% | viability, T/C [4]: 102% | viability, T/C [5]: 96.2% | viability, T/C [6]: 71.5% | viability, T/C [7]: 108% | viability, T/C [8]: 102% | viability, T/C [9]: 97.9% | viability, T/C [10]: 109% | viability, T/C [11]: 97.1% | viability, T/C [12]: 79.8% | viability, T/C [13]: 104% | viability, T/C [14]: 101% | viability, T/C [15]: 102% | viability, T/C [16]: 97.3% | viability, T/C [17]: 86.9% | viability, T/C [18]: 79.6% | viability, T/C [19]: 97.4% | viability, T/C [20]: 101% | viability, T/C [21]: 104% | viability, T/C [22]: 101% | viability, T/C [23]: 90% | viability, T/C [24]: 76.6% | viability, T/C [25]: 88.1% | viability, T/C [26]: 96.5% | viability, T/C [27]: 100% | viability, T/C [28]: 85.2% | viability, T/C [29]: 89.2% | viability, T/C [30]: 70.4% | viability, T/C [31]: 84% | viability, T/C [32]: 82.8% | viability, T/C [33]: 105% | viability, T/C [34]: 91% | viability, T/C [35]: 93.9% | viability, T/C [36]: 68.3%

COc1cc2cc(C(=O)CCC(=O)O)sc2cc1OC + COC1C(OC(N)=O)C(O)C(Oc2ccc3c(O)c(NC(=O)c4ccc(O)c(CC=C(C)C)c4)c(=O)oc3c2C)OC1(C)C
IC50 (second compound 0.0316 µM): > 10 µM | IC50 (second compound 0.1 µM): > 10 µM | IC50 (second compound 0.316 µM): > 10 µM | IC50 (second compound 1 µM): > 10 µM | IC50 (second compound 3.16 µM): > 10 µM | IC50 (second compound 10 µM): > 10 µM | viability, T/C [1]: 105% | viability, T/C [2]: 94.7% | viability, T/C [3]: 108% | viability, T/C [4]: 106% | viability, T/C [5]: 103% | viability, T/C [6]: 60.1% | viability, T/C [7]: 103% | viability, T/C [8]: 110% | viability, T/C [9]: 104% | viability, T/C [10]: 105% | viability, T/C [11]: 107% | viability, T/C [12]: 73.1% | viability, T/C [13]: 111% | viability, T/C [14]: 101% | viability, T/C [15]: 104% | viability, T/C [16]: 106% | viability, T/C [17]: 101% | viability, T/C [18]: 74.2% | viability, T/C [19]: 104% | viability, T/C [20]: 92.3% | viability, T/C [21]: 97.2% | viability, T/C [22]: 102% | viability, T/C [23]: 105% | viability, T/C [24]: 65.1% | viability, T/C [25]: 97.4% | viability, T/C [26]: 87.6% | viability, T/C [27]: 100% | viability, T/C [28]: 96.1% | viability, T/C [29]: 113% | viability, T/C [30]: 61.8% | viability, T/C [31]: 86.3% | viability, T/C [32]: 75.2% | viability, T/C [33]: 101% | viability, T/C [34]: 91.4% | viability, T/C [35]: 91.4% | viability, T/C [36]: 62%
